{"source": "patent US8652840B2", "about": "“Method for obtaining female germline stem cells and uses thereof” (The General Hospital Corporation, priority 2004, dated 2014)", "key": {"[1]": {"system": "oocyte-containing follicles", "assay": "In-vivo HDAC suppression with Trichostatin A, counts of oocyte-containing follicles", "parameters": "species or system mice", "source_text": "(§1) Age-specified or timed-pregnant wild-type C57BL/6 and CD1 female mice were obtained from Charles River Laboratories, whereas AKR/J mice were obtained from Jackson Laboratories. Ovaries were fixed in 0.34N glacial acetic acid, 10% formalin, and 28% ethanol, paraffin embedded, and serially sectioned (8 μm). The sections were aligned in order on glass microscope slides, and stained with hematoxylin and picric methyl blue. The number of non-atretic or atretic primordial, primary, and preantral follicles was then determined. Primordial follicles were identified as having a compact oocyte surrounded by a single layer of flattened granulosa cells, while primary follicles were identified as having an enlarged oocyte surrounded by a single layer of cuboidal granulosa cells. Intermediate-stage follicles (compact or enlarged oocyte with a single layer of mixed flattened and cuboidal granulosa cells) were scored as primary. Preantral follicles were identified as having an enlarged oocyte surrounded by at least a partial or complete second layer of cuboidal granulosa cells, but no more than four complete layers of cuboidal granulosa cells. Only those follicles containing an oocyte with a clearly visible nucleus were scored. Follicles at the primordial, primary and preantral (immature) stages of development were scored as atretic if the oocyte was degenerating (convoluted, condensed) or fragmented. Grossly atretic follicles lacking oocyte remnants were not included in the analyses. Given that this procedure sampled one-fifth of the entire ovarian volume, the total number of follicles per ovary (healthy or atretic) was then estimated by multiplying the cumulative counts for each ovary by a correction factor of five (Zuckerman, S. (1951) Recent Prog. Horm. Res. 6: 63-108; Tilly, J. L. (2003) Reprod. Biol. Endocrinol. 1:1-11). A single trained ovarian histologist in a blinded fashion conducted all counts, and two other members of the group periodically evaluated random samples to verify accuracy and reproducibility of the data.\nAnimals were sacrificed 24 hours post-injection, histological preparations of ovaries were prepared, and oocyte-containing follicles were counted per standard laboratory procedures (see Example 1). Treatment with TSA caused a 53% increase in the number of total healthy immature oocyte-containing follicles per ovary when compared with ovaries of control mice given the vehicle treatment. Not only was the resting (primordial) pool of follicles increased by 42%, but also the number of early growing (primary) follicles was increased (FIG. 7c)."}, "ovarian function": {"system": "ovarian function", "details": "cited from earlier work"}, "[2]": {"system": "primordial and early growing follicles (oocytes)", "assay": "Doxorubicin-synchronized oocyte death in adult female mice, germ cell dynamics", "assay_type": "in vivo", "experimental": "The existence of mammalian female germline stem cells implies an inherent capacity of the ovaries to generate, or regenerate following an insult, new stockpiles of resting (primordial) oocyte-containing follicles in a regulated fashion. To address this issue directly, adult female mice were injected with doxorubicin to synchronize oocyte death (Perez, G. I. et al, (1997) Nature Med. 3, 1228-32), and ovaries were collected at multiple intervals after drug exposure to assess germ cell dynamics."}, "primordial follicles": {"system": "primordial follicles", "parameters": "species or system mice", "details": "mouse, in vivo", "source_text": "as §1, with “Given that this procedure sampled one-fifth of the entire ovarian volume, the total number of follicles per ovary (healthy or atretic) was then estimated by multiplying the cumulative counts for each ovary by a correction factor of five (Zuckerman, S. (1951) Recent Prog. Horm. Res. 6: 63-108; Tilly, J. L. (2003) Reprod. Biol. Endocrinol. 1:1-11).” left out, “data. […]” for “data.”\nTo clarify whether loss of primordial follicles observed in busulfan-treated females (FIG. 5a) results from toxicity to existing oocytes, ovaries were collected from female mice at multiple points during and after the busulfan dosing regimen described above, and they were analyzed for the incidence of primordial follicle atresia. […]"}, "[3]": {"details": "prepubertal female mice, single i.p. injection 10 mg/kg, 24 hours post-injection"}}, "note": "Like-named read-outs stand apart in the source and are kept apart here.", "data": [{"smiles": "CC(/C=C/C(=O)NO)=C\\[C@@H](C)C(=O)c1ccc(N(C)C)cc1", "note": "[TSA, Trichostatin A]", "values": [{"measurement": "increase in primordial follicle numbers", "setting": "[1]; female mice at 240 days of age, within 24 h (data not shown)", "value": 89, "unit": "%"}, {"measurement": "increase in healthy immature follicles (number)", "setting": "[1]; prepubertal (13-day old) female mice, 10 mg/kg, 24 hours", "value": "more than 1,600"}, {"measurement": "increase in the number of total healthy immature oocyte-containing follicles per ovary versus vehicle", "setting": "[1]; [3]", "value": 53, "unit": "%"}, {"measurement": "increase of the resting (primordial) pool of follicles", "setting": "[1]; [3]", "value": 42, "unit": "%"}, {"measurement": "number of early growing (primary) follicles", "setting": "[1]; [3]", "value": "increased"}]}, {"smiles": "O=P1(N(CCCl)CCCl)NCCCO1", "note": "(centres unmarked) [cyclophosphamide]", "values": [{"measurement": "POF, cases of patients", "setting": "ovarian function; Grigg et al. 2000: both agents ages 14-57, median=38, cyclophosphamide alone ages 13-58, median=28", "value": "47 of 103"}]}, {"smiles": "COc1cccc2c1C(=O)c1c(O)c3c(c(O)c1C2=O)C[C@@](O)(C(=O)CO)C[C@@H]3O[C@H]1C[C@H](N)[C@H](O)[C@H](C)O1", "note": "[doxorubicin]", "values": [{"measurement": "primordial and total immature follicle pools", "setting": "[2]; between 24 and 36 h post-treatment (data not shown)", "value": "spontaneous regeneration"}, {"measurement": "primordial and early growing follicles (oocytes)", "setting": "[2]; within the first 24 h after treatment (data not shown)", "value": "rapid and extensive loss"}]}, {"smiles": "CS(=O)(=O)OCCCCOS(C)(=O)=O", "note": "[busulfan]", "values": [{"measurement": "POF, cases of patients", "setting": "ovarian function; in vivo", "value": "19 of 19"}, {"measurement": "hypogonadism indicative of premature ovarian failure (POF), cases of patients", "setting": "ovarian function; in vivo", "value": "20 of 21"}, {"measurement": "ovarian damage requiring hormonal replacement, cases of patients", "setting": "ovarian function; in vivo", "value": "4 of 4"}, {"measurement": "plateau number of atretic primordial follicles", "setting": "primordial follicles; female, 20 mg/kg, 5 days", "value": 46, "unit": "per ovary"}, {"measurement": "reduction in the resting (primordial) oocyte pool", "setting": "primordial follicles; female, 3 weeks", "value": 95, "unit": "%"}, {"measurement": "ratio of primordial to primary follicles, busulfan versus vehicle", "setting": "primordial follicles", "value": "No significant change"}]}]}
